Results reported in the supplement of paper PMC10307832.

Tests used:
Assay in all cases: relative viability (nuclei count vs DMSO), 5 days (fraction); higher = more cells survive
[1] = compound: C[C@@H](Oc1cc(-c2cnn(C3CCNCC3)c2)cnc1N)c1c(Cl)ccc(F)c1Cl [Crizotinib] + CCNC(=O)c1noc(-c2cc(C(C)C)c(O)cc2O)c1-c1ccc(CN2CCOCC2)cc1 [Luminespib] (partner 0.01 µM)
Summary of the method: (§1)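 Lung cancer cell lines, seeded in 1536-well plates, were treated the following day by pin tool with a single drug or with five library-drug doses (not always all listed) in √10 steps on top of a fixed anchor-drug dose. Cells were fixed and nuclei stained in one step after 5 days, and nuclei were counted. Relative viability is the nuclei count for treated wells divided by that for vehicle wells, reported as medians of duplicate plates.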

[2] = compound: O=C(c1cc(Cc2n[nH]c(=O)c3ccccc23)ccc1F)N1CCN(C(=O)C2CC2)CC1 [Olaparib] + CC(C)C[C@H](NC(=O)[C@H](Cc1ccccc1)NC(=O)c1cnccn1)B(O)O [Bortezomib] (partner 0.002 µM)
Summary of the method: as §1

[3] = compound: CC(C)C[C@H](NC(=O)[C@H](CCc1ccccc1)NC(=O)CN1CCOCC1)C(=O)N[C@@H](Cc1ccccc1)C(=O)N[C@@H](CC(C)C)C(=O)[C@@]1(C)CO1 [Carfilzomib] + C[C@@H](Oc1cc(-c2cnn(C3CCNCC3)c2)cnc1N)c1c(Cl)ccc(F)c1Cl [Crizotinib] (partner 1 µM)
Summary of the method: as §1

[4] = compound: O=C(c1cc(Cc2n[nH]c(=O)c3ccccc23)ccc1F)N1CCN(C(=O)C2CC2)CC1 [Olaparib] + Cc1cc(Nc2cc(N3CCN(C)CC3)nc(Sc3ccc(NC(=O)C4CC4)cc3)n2)n[nH]1 [Tozasertib] (partner 0.1 µM)
Summary of the method: as §1

Cell Line	relative viability ([1]; first compound 0.01 µM)	relative viability ([1]; first compound 0.03162 µM)	relative viability ([1]; first compound 0.1 µM)	relative viability ([1]; first compound 0.3162 µM)	relative viability ([1]; first compound 1 µM)	relative viability ([2]; first compound 0.08 µM)	relative viability ([2]; first compound 0.253 µM)	relative viability ([2]; first compound 2.53 µM)	relative viability ([2]; first compound 8 µM)	relative viability ([3]; first compound 0.001 µM)	relative viability ([3]; first compound 0.003162 µM)	relative viability ([3]; first compound 0.01 µM)	relative viability ([3]; first compound 0.03162 µM)	relative viability ([3]; first compound 0.1 µM)	relative viability ([4]; first compound 0.08 µM)	relative viability ([4]; first compound 0.253 µM)	relative viability ([4]; first compound 2.53 µM)	relative viability ([4]; first compound 8 µM)
HCC-827	0.542	0.651	0.784	0.52	0.646	1.01	0.943	1.03	0.95	1.02	0.953	0.985	0.858	0.271	0.414	0.376	0.399	0.378
HOP-62	0.915	0.789	0.995	0.855	0.902	1.21	0.55	0.556	0.211	0.952	0.966	0.845	0.099	0.0686	0.485	0.317	0.374	0.287
IA-LM						0.743	0.739	0.745	0.659	0.956	0.796	0.502	0.0235	0.0632				
LC-2-ad	0.953	0.943	1.09	0.942	0.91	1.15	0.922	0.908	0.556	0.508	0.485	0.428	0.371	0.279	0.554	0.429	0.436	0.437
LCLC-97TM1	0.723	0.796	0.67	0.714	0.799	0.729	0.475	1.03	0.276	0.354	0.339	0.352	0.0915	0.129	0.22	0.211	0.262	0.238
LCLC-103H	0.856	0.987	0.856		1.02	1.04	1.07	1.05	0.948	1.03	1.01	1.07	0.888	0.204	0.499	0.47	0.528	0.41
LK-2	0.173	0.188	0.188		0.201						0.237	0.16	0.262	0.209	0.161	0.178	0.164	0.171
LOU-NH91	0.351	0.311	0.346	0.34	0.345	0.502	0.462	0.512	0.394	0.818	0.798	0.77	0.434	0.277	0.729	0.674	0.637	0.628
LU99A	0.234	0.22	0.254	0.23	0.246	1.13	0.96	0.726	0.626	0.585	0.667	0.584	0.291	0.16	0.299	0.292	0.261	0.22
LXF-289	0.664	0.726	0.662	0.445	0.609	1.09	0.941	1.03	0.992	0.797	0.857	0.855	0.148	0.0565	0.232	0.146	0.159	0.156
NCI-H358	0.464	0.431	0.488	0.416	0.334					0.712	0.802	0.525	0.104	0.144	0.101	0.119	0.106	0.116
NCI-H522	1.05	1.06	1.05	1.15	1.08										0.513	0.541	0.593	0.621
NCI-H1299						1.07	0.97	1.04	0.968	1.01	0.966	0.981	0.472	0.178				
NCI-H1395	0.632	0.621	0.692	0.759	0.627										0.816	0.657	0.598	0.548
NCI-H1563	0.528	0.505	0.49	0.566	0.534	0.876	0.881	0.896	0.692	0.939	0.902	0.897	0.711	0.397				
NCI-H1623		0.469	0.502	0.486	0.5										0.474	0.446	0.493	0.413
NCI-H1648																0.482		0.556
NCI-H1703						0.367	0.301	0.445	0.417	0.579	0.73	0.168	0.0733	0.0878				
NCI-H1792	0.46	0.39	0.529		0.553	1.02	0.735	0.804	0.784	0.946	0.938	1.01	0.985	0.642				
NCI-H1944	0.671	0.648	0.646	0.872	0.777					1.02	1.2	1.09	1.07	0.302	0.217	0.198	0.228	0.231
NCI-H2170	0.914	0.806	0.649	0.606	0.511					1.1	1.32	1.33	0.528	0.2	0.81	0.806	0.705	0.629
NCI-H2342	0.635	0.931	0.674	0.705	0.815										0.458	0.552	0.479	0.416
SK-MES-1	0.669	0.827	0.771	0.712	0.76					1.04	1.05	1.09	0.752	0.169	0.962	0.828	0.818	0.562
SW 900	0.172	0.164	0.19	0.194	0.175										0.516	0.395	0.536	0.483
